Measured values from ChEMBL document CHEMBL3885881, “DrugMatrix”.

Species on record: Rattus norvegicus
Assay: DrugMatrix - Regimen: Daily Repeat
Format: toxicity, organism-based, Sprague-Dawley
Set-up: regimen Daily Repeat, gender Male, age 6-8 weeks
Details: in vivo, po, route oral GAVAGE, vehicle .5 % CMC; for BASOPHIL / EOSINOPHIL / ERYTHROCYTE COUNT / HEMATOCRIT / HEMOGLOBIN / LEUKOCYTE COUNT / LYMPHOCYTE / MEAN CORPUSCULAR HEMOGLOBIN / MEAN CORPUSCULAR HEMOGLOBIN CONCENTRATION / MEAN CORPUSCULAR VOLUME / MONOCYTE / NEUTROPHIL / PLATELET COUNT: tissue Blood; for ALANINE AMINOTRANSFERASE / ALBUMIN / ALKALINE PHOSPHATASE / ASPARTATE AMINOTRANSFERASE / BLOOD UREA NITROGEN / CHLORIDE / CHOLESTEROL / CREATINE PHOSPHOKINASE / CREATININE / GLUCOSE / PHOSPHORUS / POTASSIUM / SODIUM / TOTAL BILIRUBIN / TOTAL PROTEIN: tissue Plasma
[1] = 69 mg/kg, 72 h, dose level High, time 3 day
[2] = 69 mg/kg, 120 h, dose level High, time 5 day
[3] = […], 72 h, dose 6.9 mg/Kg, dose level Low, time 3 day
[4] = […], 120 h, dose 6.9 mg/Kg, dose level Low, time 5 day

For `COc1ccc(Cc2nccc3cc(OC)c(OC)cc23)cc1OC` [PAPAVERINE], the BASOPHIL [1] was 0%, the EOSINOPHIL [1] was 0.33% and the “ERYTHROCYTE COUNT” value [1] was 6.13 x10E6/uL. The HEMATOCRIT [1] was 36.97%, the HEMOGLOBIN [1] was 14.43 G/DL and the “LEUKOCYTE COUNT” value [1] was 10.73 x10E3/uL. For the same compound, the LYMPHOCYTE [1] was 85%, the “MEAN CORPUSCULAR HEMOGLOBIN” value [1] was 23.67 pg and the “MEAN CORPUSCULAR HEMOGLOBIN CONCENTRATION” value [1] was 39.07 G/DL. For the same compound, the “MEAN CORPUSCULAR VOLUME” value [1] was 60.5 fL, the MONOCYTE [1] was 1% and the NEUTROPHIL [1] was 13.67%. The “PLATELET COUNT” value [1] was 1169 x10E3/uL, the “ALANINE AMINOTRANSFERASE” value [1] was 36.33 u/L and the ALBUMIN [1] was 3.83 G/DL. For the same compound, the “ALKALINE PHOSPHATASE” value [1] was 289.67 u/L, the “ASPARTATE AMINOTRANSFERASE” value [1] was 57.33 u/L and the “BLOOD UREA NITROGEN” value [1] was 13.67 mg/dL. For the same compound, the CHLORIDE [1] was 107.67 MEQ/L, the CHOLESTEROL [1] was 66.33 mg/dL and the “CREATINE PHOSPHOKINASE” value [1] was 129.67 u/L. It also gave a CREATININE [1] of 0.5 mg/dL, a GLUCOSE [1] of 195.67 mg/dL and a PHOSPHORUS [1] of 11.97 mg/dL. For the same compound, the POTASSIUM [1] was 6.9 MEQ/L, the SODIUM [1] was 152.33 MEQ/L and the “TOTAL BILIRUBIN” value [1] was 0.3 mg/dL. The “TOTAL PROTEIN” value [1] was 6.13 G/DL, the BASOPHIL [2] was 0% and the EOSINOPHIL [2] was 0%. For the same compound, the “ERYTHROCYTE COUNT” value [2] was 5.8 x10E6/uL, the HEMATOCRIT [2] was 35.07% and the HEMOGLOBIN [2] was 14.43 G/DL. The “LEUKOCYTE COUNT” value [2] was 15.23 x10E3/uL, the LYMPHOCYTE [2] was 84.33% and the “MEAN CORPUSCULAR HEMOGLOBIN” value [2] was 24.97 pg. The “MEAN CORPUSCULAR HEMOGLOBIN CONCENTRATION” value [2] was 41.27 G/DL, the “MEAN CORPUSCULAR VOLUME” value [2] was 60.43 fL and the MONOCYTE [2] was 3.67%. For the same compound, the NEUTROPHIL [2] was 12%, the “PLATELET COUNT” value [2] was 973 x10E3/uL and the “ALANINE AMINOTRANSFERASE” value [2] was 34 u/L. The ALBUMIN [2] was 3.67 G/DL, the “ALKALINE PHOSPHATASE” value [2] was 334 u/L and the “ASPARTATE AMINOTRANSFERASE” value [2] was 56.33 u/L. The “BLOOD UREA NITROGEN” value [2] was 12.33 mg/dL, the CHLORIDE [2] was 105.33 MEQ/L and the CHOLESTEROL [2] was 57.67 mg/dL. The “CREATINE PHOSPHOKINASE” value [2] was 142.67 u/L, the CREATININE [2] was 0.57 mg/dL and the GLUCOSE [2] was 174.33 mg/dL. For the same compound, the PHOSPHORUS [2] was 11.33 mg/dL, the POTASSIUM [2] was 7 MEQ/L and the SODIUM [2] was 149.67 MEQ/L. The “TOTAL BILIRUBIN” value [2] was 0.43 mg/dL, the “TOTAL PROTEIN” value [2] was 5.8 G/DL and the BASOPHIL [3] was 0%. For the same compound, the EOSINOPHIL [3] was 0.33%, the “ERYTHROCYTE COUNT” value [3] was 5.94 x10E6/uL and the HEMATOCRIT [3] was 35.17%. For the same compound, the HEMOGLOBIN [3] was 14.13 G/DL, the “LEUKOCYTE COUNT” value [3] was 12.43 x10E3/uL and the LYMPHOCYTE [3] was 87.33%. For the same compound, the “MEAN CORPUSCULAR HEMOGLOBIN” value [3] was 23.8 pg, the “MEAN CORPUSCULAR HEMOGLOBIN CONCENTRATION” value [3] was 40.2 G/DL and the “MEAN CORPUSCULAR VOLUME” value [3] was 59.13 fL. For the same compound, the MONOCYTE [3] was 2.33%, the NEUTROPHIL [3] was 10% and the “PLATELET COUNT” value [3] was 1083 x10E3/uL. For the same compound, the “ALANINE AMINOTRANSFERASE” value [3] was 43.67 u/L, the ALBUMIN [3] was 3.7 G/DL and the “ALKALINE PHOSPHATASE” value [3] was 347.67 u/L. The “ASPARTATE AMINOTRANSFERASE” value [3] was 64.67 u/L, the “BLOOD UREA NITROGEN” value [3] was 11.67 mg/dL and the CHLORIDE [3] was 107 MEQ/L. The CHOLESTEROL [3] was 64.33 mg/dL, the “CREATINE PHOSPHOKINASE” value [3] was 170 u/L and the CREATININE [3] was 0.5 mg/dL. For the same compound, the GLUCOSE [3] was 172 mg/dL, the PHOSPHORUS [3] was 11.1 mg/dL and the POTASSIUM [3] was 6.23 MEQ/L. For the same compound, the SODIUM [3] was 149 MEQ/L, the “TOTAL BILIRUBIN” value [3] was 0.37 mg/dL and the “TOTAL PROTEIN” value [3] was 5.77 G/DL. The BASOPHIL [4] was 0%, the EOSINOPHIL [4] was 0.33% and the “ERYTHROCYTE COUNT” value [4] was 6.2 x10E6/uL. The HEMATOCRIT [4] was 37.4%, the HEMOGLOBIN [4] was 15.4 G/DL and the “LEUKOCYTE COUNT” value [4] was 12.83 x10E3/uL. The LYMPHOCYTE [4] was 87.33%, the “MEAN CORPUSCULAR HEMOGLOBIN” value [4] was 24.87 pg and the “MEAN CORPUSCULAR HEMOGLOBIN CONCENTRATION” value [4] was 41.17 G/DL. For the same compound, the “MEAN CORPUSCULAR VOLUME” value [4] was 60.33 fL, the MONOCYTE [4] was 1.33% and the NEUTROPHIL [4] was 11%. For the same compound, the “PLATELET COUNT” value [4] was 1006 x10E3/uL, the “ALANINE AMINOTRANSFERASE” value [4] was 35 u/L and the ALBUMIN [4] was 3.73 G/DL. The “ALKALINE PHOSPHATASE” value [4] was 374.33 u/L, the “ASPARTATE AMINOTRANSFERASE” value [4] was 60.33 u/L and the “BLOOD UREA NITROGEN” value [4] was 12.33 mg/dL. For the same compound, the CHLORIDE [4] was 108.33 MEQ/L, the CHOLESTEROL [4] was 61.33 mg/dL and the “CREATINE PHOSPHOKINASE” value [4] was 131.67 u/L. The CREATININE [4] was 0.6 mg/dL, the GLUCOSE [4] was 168.67 mg/dL and the PHOSPHORUS [4] was 10.03 mg/dL. For the same compound, the POTASSIUM [4] was 6.13 MEQ/L, the SODIUM [4] was 153.67 MEQ/L and the “TOTAL BILIRUBIN” value [4] was 0.33 mg/dL. For the same compound, the “TOTAL PROTEIN” value [4] was 5.97 G/DL.
